{"source": "patent US20030232419A1", "about": "“Molecules interacting with CASL (MICAL) polynucleotides, polypeptides, and methods of using the same” (priority 2002, published 2003)", "key": {"[1]": {"tested_on": "Sema3A-mediated axonal repulsion of NGF-dependent DRG axons", "test": "in vitro rat DRG growth cone repulsion assay using Sema 3A-secreting 293 cells", "assay_type": "cell-based", "conditions": "for attenuation of Sema 3A mediated axonal repulsion: inhibitors of other redox enzymes at concentrations previously shown to be effective in cell culture conditions", "protocol": "FIG. 4A provides a schematic diagram of the rat D E14/15 Rat DRG explants were co-cultured with 293 cells expressing Sema 3A and grown for 48 hours in the presence of an inhibitor or vehicle. Axonal outgrowth was determined by measuring proximal (P) and distal (D) axon lengths.\nDRG repulsion assays were performed as described (Messersmith et al., 1995).\n(§1) Scoring was done by splitting explants into quadrants and scoring all growth cones as either collapsed or not-collapsed."}, "[2]": {"tested_on": "Sema3A-mediated growth cone collapse in NGF-dependent DRG neurons", "test": "DRG growth cone collapse assay with AP-Sema3A", "assay_type": "cell-based, rat", "conditions": "25 mM EGCG, 3 hours in EGCG prior to 1 hour 1 nM AP-Sema3A", "from_the_text": "FIG. 4C provides a graph that quantitates the effects of oxidation/reduction enzyme inhibitors on Sema 3A repulsion scored as the ratio of the axon lengths on the proximal and distal sides of the explant (P/D ratio), and on Sema3A-mediated growth cone collapse indicated as % collapsed growth cones (gray). In repulsion assays, outgrowth of DRG axons on the side distal to the 293 cells appeared normal. […] For Rote, n=4, however only 4 out of 12 explants survived. (**=p<0.0001; *=p<0.001; paired t-test). Scale bar=[…].\nas §1"}, "[3]": {"target": "p-hydroxybenzoate hydroxylase (pHBH) (Pseudomonas aeruginosa, UniProt P20586)", "sequence (P20586 whole entry)": "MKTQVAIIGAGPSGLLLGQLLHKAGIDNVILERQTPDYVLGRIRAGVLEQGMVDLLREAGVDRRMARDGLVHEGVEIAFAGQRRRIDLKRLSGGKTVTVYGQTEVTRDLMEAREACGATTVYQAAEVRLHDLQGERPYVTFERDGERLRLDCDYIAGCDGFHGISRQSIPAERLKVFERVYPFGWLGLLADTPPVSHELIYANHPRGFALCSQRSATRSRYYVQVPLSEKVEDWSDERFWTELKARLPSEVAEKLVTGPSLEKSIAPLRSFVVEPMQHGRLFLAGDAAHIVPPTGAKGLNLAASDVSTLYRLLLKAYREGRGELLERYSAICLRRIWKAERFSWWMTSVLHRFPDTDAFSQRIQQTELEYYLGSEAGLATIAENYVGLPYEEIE", "conditions": "cited from earlier work"}, "steroid 5a-reductase": {"tested_on": "steroid 5a-reductase", "conditions": "similar concentrations of EGCG; cited from earlier work"}, "[4]": {"target": "T1, NADPH-cytochrome P450 reductase (Homo sapiens, UniProt P16435)", "T1 sequence (P16435 1-677)": "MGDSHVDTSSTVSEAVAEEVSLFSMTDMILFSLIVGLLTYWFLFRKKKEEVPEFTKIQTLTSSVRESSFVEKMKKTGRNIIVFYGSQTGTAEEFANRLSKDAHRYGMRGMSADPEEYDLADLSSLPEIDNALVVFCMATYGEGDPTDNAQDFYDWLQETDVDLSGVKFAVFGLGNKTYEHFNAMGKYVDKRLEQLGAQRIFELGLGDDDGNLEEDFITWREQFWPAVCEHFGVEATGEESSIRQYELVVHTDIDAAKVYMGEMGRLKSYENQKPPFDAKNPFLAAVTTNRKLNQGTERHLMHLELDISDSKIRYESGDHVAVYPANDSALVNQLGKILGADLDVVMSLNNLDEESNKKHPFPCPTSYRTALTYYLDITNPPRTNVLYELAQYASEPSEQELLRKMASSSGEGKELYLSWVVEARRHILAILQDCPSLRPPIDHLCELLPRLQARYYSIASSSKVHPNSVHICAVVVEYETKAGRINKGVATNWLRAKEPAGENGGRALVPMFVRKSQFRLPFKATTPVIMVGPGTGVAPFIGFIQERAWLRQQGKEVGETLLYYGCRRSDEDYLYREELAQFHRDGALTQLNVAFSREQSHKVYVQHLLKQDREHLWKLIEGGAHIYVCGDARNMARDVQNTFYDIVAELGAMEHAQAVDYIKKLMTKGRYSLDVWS", "conditions": "similar concentrations of EGCG; cited from earlier work"}, "telomerase": {"target": "telomerase (Homo sapiens, UniProt O14746)", "sequence (O14746 whole entry)": "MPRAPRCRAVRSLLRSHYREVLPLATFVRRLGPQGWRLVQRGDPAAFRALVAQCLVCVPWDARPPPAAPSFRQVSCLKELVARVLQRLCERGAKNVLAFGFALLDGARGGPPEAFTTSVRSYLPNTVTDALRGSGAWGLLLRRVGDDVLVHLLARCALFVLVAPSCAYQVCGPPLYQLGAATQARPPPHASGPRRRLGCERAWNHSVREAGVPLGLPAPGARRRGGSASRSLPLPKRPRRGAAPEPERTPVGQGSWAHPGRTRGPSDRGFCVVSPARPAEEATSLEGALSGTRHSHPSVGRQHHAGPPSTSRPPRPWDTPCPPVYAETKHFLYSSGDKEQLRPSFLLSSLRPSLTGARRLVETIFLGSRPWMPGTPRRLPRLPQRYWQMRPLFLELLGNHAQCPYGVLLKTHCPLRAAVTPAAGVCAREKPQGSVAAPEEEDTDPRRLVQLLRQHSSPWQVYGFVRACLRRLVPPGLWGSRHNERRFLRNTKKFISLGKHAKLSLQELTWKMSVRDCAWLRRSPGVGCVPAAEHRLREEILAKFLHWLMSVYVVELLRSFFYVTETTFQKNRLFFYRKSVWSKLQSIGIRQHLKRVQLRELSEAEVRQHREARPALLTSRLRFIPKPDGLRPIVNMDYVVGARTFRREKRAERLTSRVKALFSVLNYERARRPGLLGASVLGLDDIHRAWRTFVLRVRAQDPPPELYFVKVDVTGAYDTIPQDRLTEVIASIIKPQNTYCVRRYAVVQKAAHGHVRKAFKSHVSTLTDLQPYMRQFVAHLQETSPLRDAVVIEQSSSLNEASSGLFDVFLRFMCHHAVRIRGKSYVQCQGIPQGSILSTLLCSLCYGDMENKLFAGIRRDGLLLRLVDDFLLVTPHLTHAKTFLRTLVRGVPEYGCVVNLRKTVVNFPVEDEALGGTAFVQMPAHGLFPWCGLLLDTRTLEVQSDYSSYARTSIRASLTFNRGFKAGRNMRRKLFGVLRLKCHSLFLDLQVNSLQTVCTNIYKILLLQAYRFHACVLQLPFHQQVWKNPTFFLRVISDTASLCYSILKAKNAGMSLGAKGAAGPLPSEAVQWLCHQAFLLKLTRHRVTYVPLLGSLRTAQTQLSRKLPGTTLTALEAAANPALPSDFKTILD", "conditions": "similar concentrations of EGCG; cited from earlier work"}, "[5]": {"target": "matrix metalloproteinase MMP-9 (Homo sapiens, UniProt P14780)", "sequence (P14780 94-707)": "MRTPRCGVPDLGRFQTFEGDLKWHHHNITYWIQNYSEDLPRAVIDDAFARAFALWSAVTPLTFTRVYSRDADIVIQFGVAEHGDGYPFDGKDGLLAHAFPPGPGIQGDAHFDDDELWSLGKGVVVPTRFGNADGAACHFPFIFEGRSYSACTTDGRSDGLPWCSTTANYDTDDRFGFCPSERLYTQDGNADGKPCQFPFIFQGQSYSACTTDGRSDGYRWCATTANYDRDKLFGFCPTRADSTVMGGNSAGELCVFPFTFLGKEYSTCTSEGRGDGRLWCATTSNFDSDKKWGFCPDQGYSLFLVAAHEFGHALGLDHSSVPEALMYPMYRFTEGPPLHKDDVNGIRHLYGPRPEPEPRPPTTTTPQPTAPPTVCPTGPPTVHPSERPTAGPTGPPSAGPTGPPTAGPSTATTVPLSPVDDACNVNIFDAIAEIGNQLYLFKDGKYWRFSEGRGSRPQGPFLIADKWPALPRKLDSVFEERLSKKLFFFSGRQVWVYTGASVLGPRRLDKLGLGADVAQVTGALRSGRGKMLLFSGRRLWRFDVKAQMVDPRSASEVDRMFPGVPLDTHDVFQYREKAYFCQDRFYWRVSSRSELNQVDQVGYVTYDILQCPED", "conditions": "similar concentrations of EGCG; cited from earlier work"}, "phenol sulfotransferase": {"tested_on": "phenol sulfotransferase", "conditions": "similar concentrations of EGCG; cited from earlier work"}, "[6]": {"target": "T2, Drosophila MICAL (endogenous protein in embryo lysates) (Drosophila, UniProt Q86BA1 1-4723)", "T2 construct": "also called \"large\" MICAL isoform; long isoform", "test": "co-immunoprecipitation from embryo lysates with MICAL-CT antibodies, Western blot"}}, "data": [{"molecule": "Oc1ncnc2[nH]ncc12", "note": "[allopurinol]", "values": [{"measurement": "attenuation of Sema 3A mediated axonal repulsion", "setting": "[1]", "result": "No attenuation"}]}, {"molecule": "C=C(C)[C@H]1Cc2c(ccc3c2O[C@@H]2COc4cc(OC)c(OC)cc4[C@@H]2C3=O)O1", "note": "[rotenone]", "values": [{"measurement": "attenuation of Sema 3A mediated axonal repulsion", "setting": "[1]", "result": "No attenuation"}, {"measurement": "explants survived", "setting": "[1]; repulsion assay, n=4", "result": "4 out of 12"}]}, {"molecule": "(−)-epigallocatechin gallate [EGCG]", "values": [{"measurement": "Sema3A repulsion", "setting": "[1]; 25 mM EGCG added to the growth media, E14/15 rat DRG explants co-cultured with Sema 3A 293 cells for 48 hours", "result": "completely neutralized"}, {"measurement": "Sema3A-mediated growth cone collapse", "setting": "[2]", "result": "dramatically abrogates"}, {"measurement": "inhibition of p-hydroxybenzoate hydroxylase (pHBH)", "setting": "[3]", "result": "potent and selective inhibitors"}, {"measurement": "inhibition of steroid 5a-reductase", "setting": "steroid 5a-reductase", "result": "inhibit"}, {"measurement": "inhibition of NADPH-cytochrome P450 reductase", "setting": "[4]", "result": "inhibit"}, {"measurement": "inhibition of telomerase", "setting": "telomerase", "result": "inhibit"}, {"measurement": "inhibition of MMP-9", "setting": "[5]", "result": "inhibit"}, {"measurement": "inhibition of phenol sulfotransferase", "setting": "phenol sulfotransferase", "result": "inhibit"}]}, {"molecule": "Unc5, Drosophila (receptor, UniProt Q95TU8 31-1072, looked up, Specificity control in the co-immunoprecipitation) ELPQLDYGSLSASLEEDAIDPLTAMAPFANSLVTEESAQHKNNAELLGNSSEDENVRPQQGSSSSGLGSSGAAGGSGILLEEFNSGKLSPGEASNTLPIFLIEPESVFVVKNRPAVLKCKASHSLQVIFKCSGSSQPPPSTHETHVDPHTGVNMEEVTATIHRDLVDEFFGDGPFKCECHAWSSRGVVKSQAATVHIAYIRKSFNQSPTSLRLELGSRAELRCEPPGGFPEPKLTWHKNNAVITADSEPGITVSAGTLIFRQVALQHMANYSCSAENIAGRRVSDSAVLIVYVNGGWSTWSPWRECKCAGKPSQGRKRSRTCNNPMPLNGGAQCPGPQIQKSADCAACPEDTQIVSPDGFDISSSKRMARWSAWSDWSICSAECIQVRRRKCLTQGQTQISSEAEEAGDLLLGAPGVGMAALIAAAGVGAVGSPSEATGSSSDIIPGYGKSLCAGKDIQTAECRGEQCQIGKDDFDWTLYLGLAFITAVCFAFGTALICCARRGIRTNPHYNMARSVMDADYMPGVVEKKEMRMHIEASNMGYDYVNPGHRYLPGEHIMGMGIGCGGVTEHHYDVPNLSANYTNPIDHLSVDYLSETGESSTADTSNSTFDMNGKLSILNASKSSTYEMLGSAGGQLRLYGGELLLFVPEHAIGKHVKKHVSLLLLSDECSRVSCATESSILCSSVVHSAPRNYSFVKPVILKIPHCLVAPEQWHVHIYHADSEHDELSVNWRRAVSVGEETINTPMFVQLEATHVFIMTEQLGHFTVVAEPRIQQPSIKMKLLAFSQHTPPSNANCSLRIYVVKDFPNSRDICANVEAKLGGSFLGESQVFAFTLNSRNLNIRVRSADVEAAAPYEHAIPYQHILSNNSILHCEFSLRRQDQNSLCVDFGQGSEDDYYTFNIPAHSMSGSAEELASTTNTTISIDRQGNYVNESCVMDFVQLPHATKRLICGALDPPRADERDWRLLAKKLNTDRYIAYFATKASPTEQILNLWECRANSSPGSSSNSVSHTIMALLLTLKEMGRQDVLDIIVETIGPLWI", "values": [{"measurement": "binding result", "setting": "[6]", "result": "no binding"}]}]}
